Assay results from PubChem BioAssay (NCI).
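Interpolation was linear, between the two tested concentrations surrounding the appropriate level; five concentrations were tested over 48 hours in 96-well plates. TGI is the concentration that stops growth completely.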

Columns and labels:
Test in all cases: NCI-60 cell line screen, 48 h
NCI-H23 lung = tested on: NCI-H23 lung
KM12 colon = tested on: KM12 colon
786-0 renal = tested on: 786-0 renal
MCF7 breast = tested on: MCF7 breast
SK-MEL-28 melanoma = tested on: SK-MEL-28 melanoma
SN12C renal = tested on: SN12C renal
OVCAR-5 ovarian = tested on: OVCAR-5 ovarian
PC-3 prostate = tested on: PC-3 prostate
CCRF-CEM leukemia = tested on: CCRF-CEM leukemia
HOP-92 NSCLC = tested on: HOP-92 NSCLC
A549 NSCLC = tested on: A549 NSCLC
SF-539 CNS = tested on: SF-539 CNS
MOLT-4 leukemia = tested on: MOLT-4 leukemia
SK-OV-3 ovarian = tested on: SK-OV-3 ovarian
HCT-15 colon = tested on: HCT-15 colon
HS 578T breast = tested on: HS 578T breast
T-47D breast = tested on: T-47D breast
HCC-2998 colon = tested on: HCC-2998 colon
SK-MEL-2 melanoma = tested on: SK-MEL-2 melanoma
CAKI-1 renal = tested on: CAKI-1 renal
NCI-H522 lung = tested on: NCI-H522 lung
BT-549 breast = tested on: BT-549 breast
UACC-257 melanoma = tested on: UACC-257 melanoma
SF-268 CNS = tested on: SF-268 CNS
OVCAR-3 ovarian = tested on: OVCAR-3 ovarian
NCI/ADR-RES ovarian = tested on: NCI/ADR-RES ovarian
UACC-62 melanoma = tested on: UACC-62 melanoma
UO-31 renal = tested on: UO-31 renal
HCT-116 colon = tested on: HCT-116 colon
A498 renal = tested on: A498 renal
HL-60(TB) leukemia = tested on: HL-60(TB) leukemia
M14 melanoma = tested on: M14 melanoma
LOX IMVI melanoma = tested on: LOX IMVI melanoma
ACHN renal = tested on: ACHN renal
IGROV1 ovarian = tested on: IGROV1 ovarian
K-562 leukemia = tested on: K-562 leukemia
SW-620 colon = tested on: SW-620 colon
NCI-H460 lung = tested on: NCI-H460 lung
SF-295 CNS = tested on: SF-295 CNS
COLO 205 colon = tested on: COLO 205 colon
NCI-H226 lung = tested on: NCI-H226 lung
HT29 colon = tested on: HT29 colon
HOP-62 NSCLC = tested on: HOP-62 NSCLC
OVCAR-8 ovarian = tested on: OVCAR-8 ovarian
SK-MEL-5 melanoma = tested on: SK-MEL-5 melanoma
SNB-19 CNS = tested on: SNB-19 CNS
DU-145 prostate = tested on: DU-145 prostate
MDA-MB-435 = tested on: MDA-MB-435
EKVX NSCLC = tested on: EKVX NSCLC
SNB-75 CNS = tested on: SNB-75 CNS
MDA-N = tested on: MDA-N
RXF 393 renal = tested on: RXF 393 renal
MALME-3M melanoma = tested on: MALME-3M melanoma
RPMI-8226 leukemia = tested on: RPMI-8226 leukemia
OVCAR-4 ovarian = tested on: OVCAR-4 ovarian
MDA-MB-231 breast = tested on: MDA-MB-231 breast
TK-10 renal = tested on: TK-10 renal
U251 CNS = tested on: U251 CNS

COc1cc(/C=N/NC(=O)c2c(Cl)c(Cl)c(Cl)c(Cl)c2-c2nc3ccccc3[nH]2)ccc1O
TGI (NCI-H23 lung): 55.3 µM
TGI (KM12 colon): 74.9 µM
TGI (786-0 renal): > 100 µM
TGI (MCF7 breast): 44.7 µM
TGI (SK-MEL-28 melanoma): > 100 µM
TGI (SN12C renal): > 100 µM
TGI (OVCAR-5 ovarian): 86.7 µM
TGI (PC-3 prostate): > 100 µM
TGI (CCRF-CEM leukemia): > 100 µM
TGI (HOP-92 NSCLC): 33.4 µM
TGI (A549 NSCLC): > 100 µM
TGI (SF-539 CNS): > 100 µM
TGI (MOLT-4 leukemia): > 100 µM
TGI (SK-OV-3 ovarian): > 100 µM
TGI (HCT-15 colon): 79.2 µM
TGI (HS 578T breast): > 100 µM
TGI (T-47D breast): 15.9 µM
TGI (HCC-2998 colon): 33.5 µM
TGI (SK-MEL-2 melanoma): 41.1 µM
TGI (CAKI-1 renal): 49.8 µM
TGI (NCI-H522 lung): > 100 µM
TGI (BT-549 breast): 67.2 µM
TGI (UACC-257 melanoma): 87.6 µM
TGI (SF-268 CNS): > 100 µM
TGI (OVCAR-3 ovarian): > 100 µM
TGI (NCI/ADR-RES ovarian): > 100 µM
TGI (UACC-62 melanoma): 32.4 µM
TGI (UO-31 renal): > 100 µM
TGI (HCT-116 colon): 43.6 µM
TGI (A498 renal): 61.4 µM
TGI (HL-60(TB) leukemia): 53.2 µM
TGI (M14 melanoma): 90.9 µM
TGI (LOX IMVI melanoma): 61.1 µM
TGI (ACHN renal): 62.5 µM
TGI (IGROV1 ovarian): > 100 µM
TGI (K-562 leukemia): > 100 µM
TGI (SW-620 colon): > 100 µM
TGI (NCI-H460 lung): 57 µM
TGI (SF-295 CNS): > 100 µM
TGI (COLO 205 colon): 73 µM
TGI (NCI-H226 lung): 87.6 µM
TGI (HT29 colon): 62.9 µM
TGI (HOP-62 NSCLC): 75.8 µM
TGI (OVCAR-8 ovarian): > 100 µM
TGI (SK-MEL-5 melanoma): 34.2 µM
TGI (SNB-19 CNS): > 100 µM
TGI (DU-145 prostate): 56.5 µM
TGI (MDA-MB-435): 91.7 µM
TGI (EKVX NSCLC): 82.6 µM
TGI (SNB-75 CNS): 60.5 µM
TGI (MDA-N): 75.7 µM
TGI (RXF 393 renal): 46.4 µM
TGI (MALME-3M melanoma): 52.9 µM

C[n+]1c2ccccc2c2/c(=C\C#N)c3ccccc3n21
TGI (NCI-H23 lung): 77.1 µM
TGI (KM12 colon): 31.7 µM
TGI (RPMI-8226 leukemia): 16.9 µM
TGI (786-0 renal): 14.8 µM
TGI (MCF7 breast): 21.7 µM
TGI (SK-MEL-28 melanoma): 30.3 µM
TGI (SN12C renal): 38 µM
TGI (OVCAR-5 ovarian): 26.1 µM
TGI (OVCAR-4 ovarian): 11.4 µM
TGI (CCRF-CEM leukemia): 50.2 µM
TGI (A549 NSCLC): 32.9 µM
TGI (MDA-MB-231 breast): 82.3 µM
TGI (SF-539 CNS): 17.5 µM
TGI (TK-10 renal): 8.46 µM
TGI (MOLT-4 leukemia): 57.7 µM
TGI (SK-OV-3 ovarian): 16 µM
TGI (HCT-15 colon): 97.2 µM
TGI (HS 578T breast): > 100 µM
TGI (T-47D breast): 58.5 µM
TGI (HCC-2998 colon): 5.27 µM
TGI (SK-MEL-2 melanoma): 8.52 µM
TGI (CAKI-1 renal): 95.4 µM
TGI (BT-549 breast): 8.42 µM
TGI (UACC-257 melanoma): 20.8 µM
TGI (SF-268 CNS): 29.3 µM
TGI (OVCAR-3 ovarian): 33.1 µM
TGI (NCI/ADR-RES ovarian): > 100 µM
TGI (UACC-62 melanoma): 54.2 µM
TGI (UO-31 renal): 26.7 µM
TGI (HCT-116 colon): 8.45 µM
TGI (U251 CNS): 13.9 µM
TGI (A498 renal): 82.8 µM
TGI (HL-60(TB) leukemia): 26.3 µM
TGI (M14 melanoma): 18.6 µM
TGI (LOX IMVI melanoma): 16.6 µM
TGI (ACHN renal): 18.5 µM
TGI (IGROV1 ovarian): 12.2 µM
TGI (K-562 leukemia): > 100 µM
TGI (SW-620 colon): 11.8 µM
TGI (NCI-H460 lung): 22.8 µM
TGI (SF-295 CNS): 19.2 µM
TGI (COLO 205 colon): 4.87 µM
TGI (NCI-H226 lung): 17.6 µM
TGI (HT29 colon): 16.5 µM
TGI (HOP-62 NSCLC): 8.17 µM
TGI (OVCAR-8 ovarian): 15.9 µM
TGI (SK-MEL-5 melanoma): 61.3 µM
TGI (SNB-19 CNS): > 100 µM
TGI (DU-145 prostate): 45.8 µM
TGI (MDA-MB-435): 28.1 µM
TGI (EKVX NSCLC): 6.54 µM
TGI (SNB-75 CNS): 8.16 µM
TGI (MDA-N): 18.6 µM
TGI (RXF 393 renal): 21.9 µM
TGI (MALME-3M melanoma): 7.55 µM
